Reference: US20240158446A1, “CYCLIC COMPOUND HAVING SELECTIVE INHIBITORY ACTION ON KRAS OVER HRAS AND NRAS” (CHUGAI SEIYAKU KABUSHIKI KAISHA, priority 2021, published 2024)
Read-outs that look alike come from different tables or passages of the source.

Key:
[1] = target: GDP-bound HRAS wild-type protein (Homo sapiens, UniProt P01112); assay: Binding to HRAS by surface plasmon resonance (SPR), Single Cycle Kinetics; details: for HRAS/KRAS (ratio of KD value for HRAS to KD value for KRAS) / HRAS/KRAS (ratio of KD value with respect to HRAS to KD value with respect to KRAS): GDP-bound HRAS wild-type protein vs GDP-bound KRAS wild-type protein; for HRAS/KRAS (ratio of KD value with respect to GDP-bound HRAS wild-type protein to KD value with respect to KRAS): SPR KD ratio HRAS/KRAS, class symbols
[2] = tested on: human lung cancer strain NCI-H441;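 also: cell proliferation inhibition after four days measured by CellTiter-Glo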
[3] = target: GDP-bound KRAS wild-type protein (Homo sapiens, UniProt P01116); assay: Binding to KRAS by surface plasmon resonance (SPR), Single Cycle Kinetics
[4] = target: GDP-bound NRAS wild-type protein (Homo sapiens, UniProt P01111); assay: Binding to NRAS by surface plasmon resonance (SPR), Single Cycle Kinetics; details: for NRAS/KRAS (ratio of KD value for NRAS to KD value for KRAS) / NRAS/KRAS (ratio of KD value with respect to NRAS to KD value with respect to KRAS): GDP-bound NRAS wild-type protein vs GDP-bound KRAS wild-type protein; for NRAS/KRAS (ratio of KD value with respect to GDP-bound NRAS wild-type protein to KD value with respect to KRAS): SPR KD ratio NRAS/KRAS, class symbols
[5] = SPR, Single Cycle Kinetics, GDP-bound KRAS wild-type protein, read-out: KRAS KD
[6] = SPR, Single Cycle Kinetics, 1:1 binding model, GDP-bound KRAS wild-type protein, read-out: KRAS KD
[7] = SPR Single Cycle Kinetics, GDP-bound KRAS wild-type protein, 1:1 binding model, read-out: KRAS KD

Sequence of GDP-bound HRAS wild-type protein (P01112 whole entry): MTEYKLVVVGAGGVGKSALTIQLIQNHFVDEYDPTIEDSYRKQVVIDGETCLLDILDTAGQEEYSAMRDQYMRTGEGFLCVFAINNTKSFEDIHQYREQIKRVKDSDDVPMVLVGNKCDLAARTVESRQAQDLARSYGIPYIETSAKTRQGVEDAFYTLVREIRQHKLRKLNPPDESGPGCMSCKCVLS
Sequence of GDP-bound NRAS wild-type protein (P01111 whole entry): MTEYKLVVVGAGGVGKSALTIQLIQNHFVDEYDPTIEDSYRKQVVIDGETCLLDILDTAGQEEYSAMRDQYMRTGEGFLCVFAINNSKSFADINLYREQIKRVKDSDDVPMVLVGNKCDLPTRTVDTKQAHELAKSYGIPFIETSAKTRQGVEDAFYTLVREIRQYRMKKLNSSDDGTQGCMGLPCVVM
Sequence of GDP-bound KRAS wild-type protein (P01116 whole entry): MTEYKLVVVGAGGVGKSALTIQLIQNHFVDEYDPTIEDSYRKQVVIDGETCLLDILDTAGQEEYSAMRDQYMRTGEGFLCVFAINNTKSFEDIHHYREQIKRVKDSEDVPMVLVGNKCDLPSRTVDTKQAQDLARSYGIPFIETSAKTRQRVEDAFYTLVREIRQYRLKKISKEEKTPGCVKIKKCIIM

Row | IC50 [2] | Kd [3, 5] | Kd [3, 7] | Structure (SMILES) | HRAS/KRAS (ratio of KD value for HRAS to KD value for KRAS) ([1]; SPR) | NRAS/KRAS (ratio of KD value for NRAS to KD value for KRAS) ([4]; SPR) | other results
1 | 6.3 nM | 0.072 nM | – | CCOC[C@H]1C(=O)N[C@@H]([C@@H](C)CC)C(=O)N(C)CC(=O)N(C)[C@H]2C/C=C\CCN(C2=O)[C@@H](Cc2ccc(C)cc2)C(=O)N(C)CC(=O)N[C@@H](CCc2ccc(C(F)(F)F)c(Cl)c2)C(=O)N2C[C@H](OCC)C[C@H]2C(=O)NC2(CC(C)(C)C2)C(=O)N(C)[C@@H](C2CCCC2)C(=O)N(C)[C@H](C(=O)N(C)C)CC(=O)N1C [PP2395] | B (a compound having 3 or more and less than 10 is denoted as B) | A (a compound having 10 or more and less than 20 is denoted as A) | –
2 | 2.1 nM | 0.055 nM | – | CCO[C@@H]1C[C@H]2C(=O)N(C)C3(CC(C)(C)C3)C(=O)N(C)[C@@H](C3CCCC3)C(=O)N(C)[C@H](C(=O)N(C)C)CC(=O)N(C)[C@H]3CCC/C=C/c4ccc(cc4)C[C@@H](C(=O)N(C)CC(=O)N[C@@H](CCc4ccc(Cl)c(Cl)c4)C(=O)N2C1)N1CC/C=C\C[C@@H](C1=O)N(C)C(=O)CN(C)C(=O)[C@H]([C@@H](C)CC)NC3=O [PP3059] | A (a compound having 10 or more and less than 20 is denoted as A) | A (a compound having 10 or more and less than 20 is denoted as A) | –
3 | 96.4 nM | – | 1.9 nM | CCC[C@H]1C(=O)N[C@@H]([C@@H](C)CC)C(=O)N(C2CC2)CC(=O)N(C)[C@H]2C/C=C\CCN(C2=O)[C@@H](Cc2ccc(C)cc2)C(=O)N(C)CC(=O)N[C@@H](CCc2ccc(Cl)c(Cl)c2)C(=O)N2C[C@H](OCC)C[C@H]2C(=O)NC2(CC(C)(C)C2)C(=O)N(C)[C@@H](C(CC)CC)C(=O)N(C)[C@H](C(=O)N(C)C)CC(=O)N1C [PP2561] | – | – | HRAS/KRAS (ratio of KD value with respect to GDP-bound HRAS wild-type protein to KD value with respect to KRAS) [1]: A (a compound having 10 or more and less than 20 is denoted as A); NRAS/KRAS (ratio of KD value with respect to GDP-bound NRAS wild-type protein to KD value with respect to KRAS) [4]: AA (a compound having 20 or more is denoted as AA)
4 | 271 nM | – | 5.6 nM | CCC[C@H]1C(=O)N[C@@H](CC(C)C)C(=O)N2C[C@@H](OC)C[C@H]2C(=O)N(C)[C@H]2C/C=C\CCN(C2=O)[C@@H](Cc2ccc(C)cc2)C(=O)N(C)CC(=O)N[C@@H](CCc2ccc(C(F)(F)F)c(OC)c2)C(=O)N2C[C@H](OCC)C[C@H]2C(=O)NC2(CC(C)(C)C2)C(=O)N(C)[C@@H](C2CCCC2)C(=O)N(C)[C@H](C(=O)N(C)C)CC(=O)N1C [PP2554] | – | – | HRAS/KRAS (ratio of KD value with respect to GDP-bound HRAS wild-type protein to KD value with respect to KRAS) [1]: B (a compound having 3 or more and less than 10 is denoted as B); NRAS/KRAS (ratio of KD value with respect to GDP-bound NRAS wild-type protein to KD value with respect to KRAS) [4]: A (a compound having 10 or more and less than 20 is denoted as A)
5 | – | 0.052 nM | – | CCC[C@H]1C(=O)N[C@@H]([C@@H](C)CC)C(=O)N(C)CC(=O)N(C)[C@H]2C/C=C\CCN(C2=O)[C@@H](Cc2ccc(C(F)(F)F)cc2)C(=O)N(C)CC(=O)N[C@@H](CCc2cc(F)c(C(F)(F)F)c(F)c2)C(=O)N2C[C@H](OCC)C[C@H]2C(=O)N(C)C2(CCC2)C(=O)N(C)[C@@H](C2CCCC2)C(=O)N(C)[C@H](C(=O)N2CCCC2)CC(=O)N1C [PP3120, (2S,8S,12R,14S,20S,23S,27S,30S,36S,38Z)-20-cyclopentyl-8-[2-[3,5-difluoro-4-(trifluoromethyl)phenyl]ethyl]-12-ethoxy-4,16,19,22,26,32,35-heptamethyl-30-[(1S)-1-methylpropyl]-27-propyl-23-(pyrrolidine-1-carbonyl)-2-[[4-(trifluoromethyl)phenyl]methyl]spiro[1,4,7,10,16,19,22,26,29,32,35-undecazatricyclo[34.5.1.0^10,14]dotetracont-38-ene-17,1′-cyclobutane]-3,6,9,15,18,21,25,28,31,34,42-undecone] | A (a compound having 10 or more and less than 20 is denoted as A) | AA (a compound having 20 or more is denoted as AA) | ratio of the KD value with respect to GDP-bound HRAS wild-type protein to the KD value with respect to KRAS ([1]; SPR, KD(HRAS)/KD(KRAS)): A (a compound having 10 or more and less than 20 is denoted as A); IC50 ([2]; read-out: NCI-H441 cell proliferation inhibitory activity, 50% proliferation inhibitory concentration (IC50 value), NCI-H441, four days, CellTiter-Glo): 1.9 nM; Kd ([3]; SPR, Single Cycle Kinetics, 1:1 binding model, read-out: KD value with respect to GDP-bound KRAS wild-type protein): 0.052 nM; ratio of the KD value with respect to GDP-bound NRAS wild-type protein to the KD value with respect to KRAS ([4]; SPR, KD(NRAS)/KD(KRAS)): AA (a compound having 20 or more is denoted as AA)
6 | 384 nM | 5.1 nM | – | CCC(CC)[C@H]1C(=O)N(C)[C@H](C(=O)N(C)C)CC(=O)N(C)[C@@H](COC)C(=O)N[C@@H]([C@@H](C)CC)C(=O)N(C2CC2)CC(=O)N(C)[C@H]2C/C=C\CCN(C2=O)[C@@H](CC2CCCCC2)C(=O)N(C)CC(=O)N[C@@H](CCc2cc(F)c(C(F)(F)F)c(F)c2)C(=O)N2C[C@H](OC(C)C)C[C@H]2C(=O)NC2(CC(C)(C)C2)C(=O)N1C [PP2515] | A (a compound having 10 or more and less than 20 is denoted as A) | A (a compound having 10 or more and less than 20 is denoted as A) | –

Second part, the molecule before the results:

Row | Structure (SMILES) | IC50 [2] | Kd [3, 5] | Kd [3, 7] | HRAS/KRAS (ratio of KD value for HRAS to KD value for KRAS) ([1]; SPR) | NRAS/KRAS (ratio of KD value for NRAS to KD value for KRAS) ([4]; SPR) | other results
7 | CCO[C@@H]1C[C@H]2C(=O)NC3(CCCC3)C(=O)N(C)[C@@H](C(CC)CC)C(=O)N(C)[C@H](C(=O)N3CCCC3)CC(=O)N(C)[C@@H](COC)C(=O)N[C@@H]([C@@H](C)CC)C(=O)N(C)CC(=O)N(C)[C@H]3C/C=C\CCN(C3=O)[C@@H](CC3CCC(F)(F)CC3)C(=O)N(C)CC(=O)N[C@@H](CCc3cc(F)c(C(F)(F)F)c(F)c3)C(=O)N2C1 [PP1441] | 87.6 nM | – | – | – | – | HRAS/KRAS (ratio of KD value for HRAS to KD value for KRAS) ([1]; SPR, KD ratio class): A (a compound having 10 or more and less than 20 is denoted as A); Kd [3, 6]: 0.7 nM; NRAS/KRAS (ratio of KD value for NRAS to KD value for KRAS) ([4]; SPR, KD ratio class): A (a compound having 10 or more and less than 20 is denoted as A)
8 | CCO[C@@H]1C[C@H]2C(=O)NC3(CCC3)C(=O)N(C)[C@@H](C3CCCC3)C(=O)N(CCC3CCCC3)[C@H](C(=O)N(C)C)CC(=O)N(C)[C@@H](CC)C(=O)N[C@@H]([C@@H](C)CC)C(=O)N(C)CC(=O)N(C)[C@H]3CCCCN(C3=O)[C@@H](Cc3ccc(C(F)(F)F)cc3)C(=O)N(C)CC(=O)N[C@@H](CCc3cc(F)c(C(F)(F)F)c(F)c3)C(=O)N2C1 [PP0646] | 17 nM | – | 0.14 nM | – | – | HRAS/KRAS (ratio of KD value with respect to HRAS to KD value with respect to KRAS) ([1]; SPR): B (a compound having 3 or more and less than 10 is denoted as B); NRAS/KRAS (ratio of KD value with respect to NRAS to KD value with respect to KRAS) ([4]; SPR): C (A compound having a KD ratio of 0.1 or more and less than 3 is denoted as C)
9 | CCOC[C@H]1C(=O)N[C@@H]([C@@H](C)CC)C(=O)N2CCC[C@H]2C(=O)N(C)[C@H]2C/C=C\CCN(C2=O)[C@@H](CC2CCCCC2)C(=O)N(C)CC(=O)N[C@@H](CCc2ccc(C(F)(F)F)c(OC)c2)C(=O)N2C[C@@H](C)C[C@H]2C(=O)N(C)C2(CCC2)C(=O)N(C)[C@@H](C2CCCC2)C(=O)N(C)[C@H](C(=O)N(C)C)CC(=O)N1C [PP2375] | 172 nM | 1.1 nM | – | B (a compound having 3 or more and less than 10 is denoted as B) | A (a compound having 10 or more and less than 20 is denoted as A) | –
10 | CCCOC[C@H]1C(=O)N[C@@H]([C@@H](C)CC)C(=O)N2CCC[C@H]2C(=O)N(C)[C@H]2C/C=C\CCN(C2=O)[C@@H](Cc2ccc(C)cc2)C(=O)N(C)CC(=O)N[C@@H](CCc2ccc(C(F)(F)F)c(OC)c2)C(=O)N2C[C@@H](C)C[C@H]2C(=O)N(C)C2(CCC2)C(=O)N(C)[C@@H](C2CCCC2)C(=O)N(C)[C@H](C(=O)N(C)C)CC(=O)N1C [PP2369] | 4.5 nM | 0.062 nM | – | B (a compound having 3 or more and less than 10 is denoted as B) | A (a compound having 10 or more and less than 20 is denoted as A) | –
11 | CCO[C@@H]1C[C@H]2C(=O)NC3(CCC3)C(=O)N(C)[C@@H](C3CCCC3)C(=O)N(C)[C@H](C(=O)N3CCOCC3)CC(=O)N(C)[C@@H](CC3CCC3)C(=O)N[C@@H]([C@@H](C)CC)C(=O)N(C)CC(=O)N(C)[C@H]3C/C=C\CCN(C3=O)[C@@H](Cc3ccc(C(F)(F)F)cc3)C(=O)N(C)CC(=O)N[C@@H](CCc3cc(F)c(C(F)(F)F)c(F)c3)C(=O)N2C1 [PP1422] | 14.1 nM | – | – | – | – | HRAS/KRAS (ratio of KD value for HRAS to KD value for KRAS) ([1]; SPR, KD ratio class): A (a compound having 10 or more and less than 20 is denoted as A); Kd [3, 6]: 0.22 nM; NRAS/KRAS (ratio of KD value for NRAS to KD value for KRAS) ([4]; SPR, KD ratio class): AA (a compound having 20 or more is denoted as AA)
12 | CC[C@H](C)[C@@H]1NC(=O)[C@H](CC(C)C)N(C)C(=O)C[C@@H](C(=O)N2CCOCC2)N(C)C(=O)[C@H](C2CCCC2)N(C)C(=O)C2(CCCC2)NC(=O)[C@@H]2[C@@H](O)CCN2C(=O)[C@H](CCc2cc(F)c(C(F)(F)F)c(F)c2)NC(=O)CN(C)C(=O)[C@H](Cc2ccc(C(F)(F)F)cc2)N2CCCC[C@@H](C2=O)N(C)C(=O)CN(C)C1=O [PP0558] | 31.4 nM | – | 0.067 nM | – | – | HRAS/KRAS (ratio of KD value with respect to HRAS to KD value with respect to KRAS) ([1]; SPR): B (a compound having 3 or more and less than 10 is denoted as B); NRAS/KRAS (ratio of KD value with respect to NRAS to KD value with respect to KRAS) ([4]; SPR): B (a compound having 3 or more and less than 10 is denoted as B)
